# The supplement of paper PMC10307832
# Assays:
# Test in all cases: relative viability (nuclei count vs DMSO), 5 days (fraction); higher = more cells survive
# [1] = test system: 201T
# Summary of the method: (§1)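 Lung cancer cell lines in 1536-well plates got either a single drug or a fixed anchor-drug dose together with five library-drug doses (not always all listed) in √10 steps, by pin tool, on the day after seeding. Nuclei were counted after 5 days, and relative viability is the treated-to-vehicle ratio of nuclei counts. Values are medians of duplicate plates.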
# [2] = test system: BEN
# Summary of the method: as §1
# [3] = test system: CAL-12T
# Summary of the method: as §1
# [4] = test system: HCC-827
# Summary of the method: as §1
# [5] = test system: LCLC-103H
# Summary of the method: as §1
# [6] = test system: LCLC-97TM1
# Summary of the method: as §1
# [7] = test system: LXF-289
# Summary of the method: as §1
# [8] = test system: NCI-H1395
# Summary of the method: as §1
# [9] = test system: NCI-H1437
# Summary of the method: as §1
# [10] = test system: NCI-H1650
# Summary of the method: as §1
# [11] = test system: NCI-H1792
# Summary of the method: as §1
smiles,measurement,setting,value
CC(=O)O[C@@]12CO[C@@H]1C[C@H](O)[C@@]1(C)C(=O)[C@H](O)C3=C(C)[C@@H](OC(=O)[C@H](O)[C@@H](NC(=O)OC(C)(C)C)c4ccccc4)C[C@@](O)([C@@H](OC(=O)c4ccccc4)[C@H]21)C3(C)C [Docetaxel] + Cc1nc(Nc2ncc(C(=O)Nc3c(C)cccc3Cl)s2)cc(N2CCN(CCO)CC2)n1 [Dasatinib] (partner 0.075 µM),relative viability,[1]; first compound 0.0002 µM,0.562
same,relative viability,[1]; first compound 0.000632 µM,0.548
same,relative viability,[1]; first compound 0.002 µM,0.52
same,relative viability,[1]; first compound 0.006325 µM,0.46
same,relative viability,[1]; first compound 0.02 µM,0.282
same,relative viability,[2]; first compound 0.0002 µM,0.281
same,relative viability,[2]; first compound 0.000632 µM,0.355
same,relative viability,[2]; first compound 0.002 µM,0.328
same,relative viability,[2]; first compound 0.006325 µM,0.183
same,relative viability,[2]; first compound 0.02 µM,0.154
same,relative viability,[3]; first compound 0.0002 µM,0.412
same,relative viability,[3]; first compound 0.000632 µM,0.192
same,relative viability,[3]; first compound 0.002 µM,0.137
same,relative viability,[3]; first compound 0.006325 µM,0.0909
same,relative viability,[3]; first compound 0.02 µM,0.0651
same,relative viability,[4]; first compound 0.0002 µM,0.237
same,relative viability,[4]; first compound 0.000632 µM,0.297
same,relative viability,[4]; first compound 0.002 µM,0.289
same,relative viability,[4]; first compound 0.006325 µM,0.22
same,relative viability,[4]; first compound 0.02 µM,0.155
same,relative viability,[5]; first compound 0.0002 µM,0.34
same,relative viability,[5]; first compound 0.000632 µM,0.456
same,relative viability,[5]; first compound 0.002 µM,0.337
same,relative viability,[5]; first compound 0.006325 µM,0.311
same,relative viability,[5]; first compound 0.02 µM,0.19
same,relative viability,[6]; first compound 0.0002 µM,0.843
same,relative viability,[6]; first compound 0.000632 µM,0.762
same,relative viability,[6]; first compound 0.002 µM,0.675
same,relative viability,[6]; first compound 0.006325 µM,0.273
same,relative viability,[6]; first compound 0.02 µM,0.144
same,relative viability,[7]; first compound 0.0002 µM,0.181
same,relative viability,[7]; first compound 0.000632 µM,0.154
same,relative viability,[7]; first compound 0.002 µM,0.0677
same,relative viability,[7]; first compound 0.006325 µM,0.0536
same,relative viability,[7]; first compound 0.02 µM,0.0314
same,relative viability,[8]; first compound 0.0002 µM,0.439
same,relative viability,[8]; first compound 0.000632 µM,0.469
same,relative viability,[8]; first compound 0.002 µM,0.402
same,relative viability,[8]; first compound 0.006325 µM,0.327
same,relative viability,[8]; first compound 0.02 µM,0.272
same,relative viability,[9]; first compound 0.0002 µM,0.339
same,relative viability,[9]; first compound 0.000632 µM,0.259
same,relative viability,[9]; first compound 0.002 µM,0.268
same,relative viability,[9]; first compound 0.006325 µM,0.174
same,relative viability,[9]; first compound 0.02 µM,0.122
same,relative viability,[10]; first compound 0.0002 µM,0.263
same,relative viability,[10]; first compound 0.000632 µM,0.245
same,relative viability,[10]; first compound 0.02 µM,0.104
same,relative viability,[11]; first compound 0.0002 µM,0.796
same,relative viability,[11]; first compound 0.000632 µM,0.707
same,relative viability,[11]; first compound 0.002 µM,0.648
same,relative viability,[11]; first compound 0.006325 µM,0.482
same,relative viability,[11]; first compound 0.02 µM,0.22
